Read-outs that look alike come from different tables or passages of the source.
How the values were obtained:
[1] = In vivo pharmacokinetic study in rats, intravenous DUT without or with intravenous KET; parameters: species or system rat; conditions: for AUC(0-inf) / half-life / clearance / Vd: male, Sprague-Dawley, rat, iv, 2.5 mg/kg; for AUC(0-inf) / half-life: n = 4; for Vd: n = 4, read-out: Vss
Source text: The animal experiment protocols used in the present study were approved by the Pusan National University-Institutional Animal Care and Use Committee for scientific care and ethical procedures (Busan, Korea; approval date: 01/05/2018; approval number: PNU-2018-1848). Male Sprague–Dawley rats (8-week-old; approximately 250 g) were purchased from DBL Co., Ltd. (Incheon, Korea). The rats were acclimatized in a clean room of the Laboratory Animal Center of Pusan National University (Busan, Korea) for 1 week. Then, they were fasted for 12 h prior to the pharmacokinetic experiment and then anesthetized by intramuscular injection of Zoletil at a dose of 20 mg/kg. The femoral vein and artery of the rats were cannulated with a polyethylene tube (BD Medical; Franklin Lakes, NJ, USA). At approximately 4–6 h after the surgery for cannulation, an intravenous dose of DUT (2.5 mg/kg) simultaneously with or without intravenous KET (20 mg/kg) or an oral dose of DUT (5 mg/kg) simultaneously with or without intravenous KET (20 mg/kg) was administered to the rats. Drugs were dissolved in a vehicle consisting of dimethyl sulfoxide, ethanol, and polyethylene glycol 400 at a ratio of 10:5:85 (v/v/v). Blood (approximately 200 μL) was collected in heparin pre-treated microcentrifuge tubes via the femoral artery at 0, 1, 5, 15, 30, 60, 120, 180, 240, 360, 480, and 1200 min after the intravenous dose and at 0, 5, 15, 30, 60, 120, 150, 180, 240, 360, 480, and 1200 min after the oral dose. Following centrifugation of the blood samples at 3000× g at 4 °C for 10 min [19], 100 μL aliquots of plasma were stored at −80 °C.
The half maximal inhibitory concentration (IC50) of KET for the inhibition of the DUT metabolism was determined by the nonlinear regression analysis (GraphPad Prism ver. 5.01; GraphPad Software Inc., San Diego, CA, USA) based on the following Hill equation: y = Min + Max−Min/1 + (x/IC50)^-P where Max and Min are the initial and final y value, respectively, and the exponent P represents the Hill coefficient. Peak plasma concentration (Cmax) and time to reach Cmax (Tmax) were read directly from the observed data. Non-compartmental analysis was conducted to estimate pharmacokinetic parameters such as total area under plasma concentration versus time curve from time zero to time of last sampling (AUClast), total area under plasma concentration versus time curve from time zero to infinity (AUCinf), total plasma clearance (CL), volume of distribution at steady state (Vss), and terminal half-life (t1/2) using the NCA200 and 201 models of WinNonlin ver. 3.1 (Certara USA Inc., Princeton, NJ, USA).

[2] = Unbound fraction by rapid equilibrium dialysis, rat plasma; assay type: in vitro ADME
Method: (§1) To investigate the metabolic interaction potential between DUT and KET, the disappearance of DUT (5 μM) in RLM and HLM was determined under the absence and presence of KET at various concentrations ranging from 1 to 5000 nM. A microsomal reaction mixture was prepared as follows (total volume: 0.2 mL): 1 mM NADPH, 10 mM MgCl2, substrate (DUT), and inhibitor (KET), RLM or HLM (1 mg/mL), and 50 mM phosphate buffer. At 0 and 90 min after starting the metabolic reaction, a 50 μL aliquot of microsomal incubation mixture was sampled and immediately transferred into a clean 1.5 mL microcentrifuge tube containing 100 μL cold ACN with an internal standard (celecoxib at 400 ng/mL) to stop the metabolic reaction. After vortex mixing and centrifugation at 15,000× g for 10 min, a 100 μL aliquot of the supernatant was stored at −80 °C. The unbound fractions of DUT in rat plasma, RLM, human plasma, and HLM were measured using a rapid equilibrium dialysis (RED) device (Thermo Fisher Scientific, Inc., Waltham, MA, USA) as described in a previous study. […] The fraction unbound was calculated as the ratio of the drug concentrations in the “buffer” chamber to those in the “sample” chamber. The blood-to-plasma concentration ratio (RB) of DUT was determined as described previously. […] The concentrations of DUT in the plasma sample were determined by the validated HPLC analysis.

[3] = Unbound fraction by rapid equilibrium dialysis, RLM; assay type: in vitro ADME, rat
Method: as §1

[4] = Previous and preliminary rat studies of intravenous DUT; assay type: in vivo; conditions: rats, preliminary study
[5] = plasma, intravenous DUT 2.5 mg/kg with intravenous KET 20 mg/kg
[6] = plasma, intravenous DUT 2.5 mg/kg, DUT alone

Question: What does the source list for `C[C@]12C=CC(=O)N[C@@H]1CC[C@@H]1[C@@H]2CC[C@]2(C)[C@@H](C(=O)Nc3cc(C(F)(F)F)ccc3C(F)(F)F)CC[C@@H]12` [DUT, Dutasteride]?
Answer: hepatic extraction ratio ([1]; calculated as CLH/QH, QH 50–80 mL/min/kg): 0.039–0.062; AUC(0-inf) [1, 5]: 41800 ng·h/mL; half-life [1, 5]: 51 ± 5.98 h; clearance ([1]; plasma, intravenous DUT 2.5 mg/kg with intravenous KET 20 mg/kg, n = 4, read-out: CL): 1.02 ± 0.16 mL/min/kg; Vd [1, 5]: 4.41 ± 0.373 L/kg; AUC(0-inf) [1, 6]: 19100 ng·h/mL; half-life [1, 6]: 26.8 ± 3.27 h; clearance ([1]; plasma, intravenous DUT 2.5 mg/kg, DUT alone, n = 4, read-out: CL): 2.19 ± 0.16 mL/min/kg; Vd [1, 6]: 4.9 ± 0.326 L/kg; clearance ([1]; whole blood, intravenous DUT 2.5 mg/kg, calculated as CL/RB, mean value, read-out: total blood clearance (CLB)): 3.08 mL/min/kg; fraction of unbound DUT, presence versus absence of KET ([2]; DUT and KET 5 μM, n = 5): no significant differences; fraction unbound at 5 μM ([2]; Sprague-Dawley, DUT 5 μM, RED device): 0.0115; fraction of unbound DUT, presence versus absence of KET ([3]; RLM, DUT and KET 5 μM, n = 5): no significant differences; fraction unbound at 5 μM ([3]; Sprague-Dawley, rat, rat liver microsomes, RLM 1 mg/mL, DUT 5 μM, RED device): 0.0856; renal excretion of DUT in the unchanged form [4]: less than 1 % of intravenously administered dose
